# Source: patent US8513437B2, “Pyrrolidino-1,4-naphthoquinone deriviatives and their use for treating malignancies and cardiovascular diseases” (Ben Gurion University of the Negev Research and Development …, priority 2004, dated 2013)
# “Also recorded” adds a separate entry of the source. Read-outs that look alike come from different tables or passages of the source.
# How the values were obtained:
# ERKs [1] = test: Western immunoblot, ERKs phosphorylation in cardiomyocytes; type: cell-based, rat; conditions: 0.5-10 μM, 20 min, 37° C., FIG. 1B
# Experimental: (§1) The effect of the compounds of formula I on ERKs and p38-MAPK was checked in cardiomycetes. […] Stimulation of the MAPKs members by compounds of the invention was compared with the stimulation by the growth factor Ang (Angiotensin II, 10 nM, 10 min), which is known as MAPKs stimulator in cardiomyocytes. […] ERKs and p38 were related to the total amount of ERKs proteins in the sample. […] As explained, the ERKs signaling pathway participate in the cell survival and proliferation. Administering the compounds stimulating this pathways after myocardial infarction may accelerate cell survival of the cardiomyoctes; alternatively, said compounds may be administered as a preventing drug before the injury occurs in risk cases.
# [2] = tested on: primary vascular smooth muscle (VSM) cells derived from rat aorta; test: Cell viability (XTT) of VSM cells; type: cell-based; conditions: 24 h incubation with compound, then XTT 4 h; read-out: ID50 VSM cells
# Experimental: (§2) Three main cell types of the cardiovascular system were evaluated: primary cardiomyocytes derived from neonatal rats primary vascular smooth muscle (VSM) cells derived from rat aorta and human umbilical vein endothelial cells. Furthermore, human colon carcinoma HT29 cells and BL6-8 melanoma cells were evaluated as representative cancer cells. The cells were prepared as described previously in Etzion S. et al.: JMCC 33 (2001) 1321-30; Granot Y. et al.: JBC 268 (1993) 9564-9; the ATCC (the Global Bioresource Center™); and Assa-Kunik et al.: J. Immunol. 171 (2003) 2945-52.
# (§3) The cell viability was examined using the XTT method following kit instructions (Biological Industry, Israel). The assay is based on the ability of metabolic active cells to reduce the tetrazolium salt XTT to orange colored compound of formazan. The dye formed is water soluble and the dye intensity can be read with spectrophotometer at 450-500 nm. The intensity of the dye is proportional to the number of metabolic active cells.
# (§4) The viability of the cells was measured as described above. Briefly, cells were incubated with the compounds for 24 h followed by incubation with XTT for 4 h. The assay is based on the ability of metabolic active cells to reduce the tetrazolium salt XTT to orange colored compound of formazan. The intensity of the dye is proportional to the number of metabolically active cells. […]
# [3] = tested on: human umbilical vein endothelial cells; test: Cell viability (XTT) of endothelial cells; type: cell-based; conditions: 24 h incubation with compound, then XTT 4 h; read-out: ID50 Endothelial cells
# Experimental: as §2, §3, §4
# [4] = tested on: HT29 human colon carcinoma cells; test: Viability of HT29 human colon carcinoma cells; type: cell-based; conditions: 24 h incubation; read-out: ID50 HT29-colon carcinoma
# Experimental: as §2, §3
# HT29 human carcinoma cells were incubated for 24 h with compounds of the invention.
# [5] = tested on: primary cardiomyocytes derived from neonatal rats; test: Cell viability (XTT) of cardiomyocytes; type: cell-based, rat; conditions: for IC50: 24 h incubation with compound, then XTT 4 h, read-out: ID50 Cardiomyocytes; for injury of cardiomyocytes at concentrations killing VSM cells: cardiomyocytes versus VSM cells
# Experimental: as §2, §3
# The viability of the cells was measured as described above. Briefly, cells were incubated with the compounds for 24 h followed by incubation with XTT for 4 h. The assay is based on the ability of metabolic active cells to reduce the tetrazolium salt XTT to orange colored compound of formazan. The intensity of the dye is proportional to the number of metabolically active cells. The concentration at which 50% cells remain viable, ID50, is shown in Table 1 for several compounds of the invention.
# p38-MAPK [6] = test: Western immunoblot, p38-MAPK phosphorylation in cardiomyocytes; type: cell-based, rat; conditions: 0.5-10 μM, 20 min, 37° C., FIG. 1B
# Experimental: as §1
# [7] = tested on: HT29 human colon carcinoma cells; test: Apoptosis of HT29 cells (DNA fragmentation, PI staining); type: cell-based; conditions: 48 h incubation
# Experimental: The various cell types were incubated with a compound of formula I (0.3-25 μM) for 24-48 h. Untreated cells were served as control. After trypsinization, cells were centrifuged for 5 min, 1500 g and resuspended in DMEM medium contains 10% FCS. Sample of the cells (25 μl) was added to 2 μl mixture of (5 μg/ml) ethidium bromide and (5 μg/ml) acridine orange in PBS. Sample of the stained cells was examined under fluorescent microscope. Ethidium bromide binds to the DNA of damaged cells and stains it orange, while acridine orange stains the nucleus in green. Apoptotic cells appear as nuclei with orange staining of fragmented DNA.
# HT29 cells, either untreated or treated 48 h with a compound of formula I (25 μM), after trypsinization, were collected and centrifuged for 5 min, 800 g. The pellet was resuspended with PBS and centrifuged again. 60 μl of PBS was added to the pellet followed by addition of 360 μl of ice-cold 80% ethanol and incubating overnight at −20° C. The cells were thawed on ice and centrifuged for 5 min 800 g 4° C. […] Analysis was carried out by fluorescence-activated flow cytometer (FACSscan).
# Apoptosis was evaluated following incubation of 48 h with compound TW 69 using DNA fragmentation method (ethidium bromide staining) and PI (propidium iodide) staining assay, as described above. […]
# ERKs [8] = test: Western immunoblot, ERKs phosphorylation in VSM cells; type: cell-based, rat; conditions: 0.5-20 μM, 20 min, 37° C., FIG. 1A
# Experimental: (§5) Stimulation of ERKs and p38-MAPKs with compounds of the invention was characterized in VSM cells and cardiomyocytes. […] As a positive control for ERKs activation, the cells were incubated with 10^−7M EGF for 5 minutes. […] Therefore, this compound and other derivates may be used as selective compounds to inhibit or stimulate one of the members in the MAPKs-signaling pathway.
# p38-MAPK [9] = test: Western immunoblot, p38-MAPK phosphorylation in VSM cells; type: cell-based, rat; conditions: 0.5-20 μM, 20 min, 37° C., FIG. 1A
# Experimental: as §5
# [10] = tested on: cardiomyocytes in rat heart; test: Cardiomyocyte proliferation following direct injection in-vivo (PCNA staining); conditions: direct injection into rat heart, 0.5, 5 and 50 microM, three days, versus saline
# Experimental: Proliferation of cardiomyocytes was evaluated in-vivo following direct injection of EH48 in three concentrations (0.5, 5 and 50 microM) into rat heart. Three days after injections rats were sacrificed and the hearts were fixed with formaldehyde 4%. Slides of 5 micron were stained with the DNA specific marker PCNA. Only cells with morphology of cardiomyocytes (large cells with striation) that expressed the PCNA in the nucleus (brown staining) were considered as proliferate cardiomyocytes (FIG. 6A, arrows). The number of stained cells in each treatment was evaluated compared to control (saline injected) rats (FIG. 6B).
# cardiomyocytes = test: Cardiomyocyte viability (XTT) following incubation with EH48; type: cell-based, rat; conditions: cardiomyocytes starved 16-18 h, compound 24 h, XTT 4 h, FIG. 5
# Experimental: as §3
# The viability of the cells was measured as described above. Briefly, cells were starved for 16-18 h followed by incubation with the compound of formula II (EH48) for 24 h and incubation with XTT for an other 4 h. The assay is based on the ability of metabolic active cells to reduce the tetrazolium salt XTT to orange colored compound of formazan. The intensity of the dye is proportional to the number of metabolically active cells.
# P38 pathway = test: Western immunoblot, p38 phosphorylation in BL6-8 melanoma cells; type: cell-based; conditions: FIG. 3B
# ERKs [11] = conditions: HT29 cells, 5-25 μM, 20 min to 4 h, FIG. 3A
# ERKs survival pathway = test: Western immunoblot, ERKs phosphorylation in BL6-8 melanoma cells; conditions: FIG. 3B
# Experimental: (§6) Confluent cell monolayers were growth-arrested in serum-free medium for 24 h prior to treatment with the compounds in this patent. Cells were washed twice with medium, scraped, resuspended in lysis buffer (10% glycerol, 25 mM NaCl, 0.1% Triton X-100, 50 mM NaF, 10 mM Na-pyrophosphate, 2 mM EGTA, 2 mM DTT, 20 mM p-nitro-phenylphosphate, 25 mM Tris-HCl, 2 mM Na2VO4, 10 μM PMSF, 10 μg/ml Leupeptin), and the lysate was centrifuged at 14,000 rpm for 20 min. Samples were separated by SDS-polyacrylamide gel electrophoresis, transferred to nitrocellulose membrane, and blocked for 1 h at room temperature with 5% nonfat milk in TBS-T buffer (20 mM Tris, 500 mM NaCl, and 0.01% Tween 20). The membrane was then incubated overnight at 4° C. with an appropriate dilution of anti-phospho-ERKs or anti-total ERK, anti-phospho-p38 or anti-phospho-JNK, followed by incubation for 1 h with the appropriate horseradish peroxidase-conjugated secondary antibody. The immunoblot signal was visualized through enhanced chemiluminescence.
# The cells were starved for 24 h in serum free medium, incubated with the selected compound (5-25 μM) for 20 min to 4 h (dependent on the compound examined), 37° C., harvested, centrifuged and suspended in the lysis buffer. The MAPKs stimulation was estimated using the western immunoblot analysis as described above.
# STAT3 = test: Western immunoblot, STAT3 phosphorylation in VSM cells; conditions: VSM cells activated with AVP, FIG. 2
# Experimental: as §6
SMILES,stimulation of ERKs signaling pathway (ERKs [1]),IC50 [2] [µM],IC50 [3] [µM],IC50 [4] [µM],IC50 [5] [µM],stimulation of p38-MAPK signaling pathway (p38-MAPK [6]),acceleration of apoptotic response [7] [%],stimulation of ERKs signaling (ERKs [8]),injury of cardiomyocytes at concentrations killing VSM cells [5],stimulation of p38-MAPK signaling (p38-MAPK [9]),survival and proliferation of cardiomyocytes in-vivo (PCNA-stained cells) [10],XTT dye intensity (cell survival and viability) (cardiomyocytes),stimulation of P38 pathway (P38 pathway),stimulation of ERKs signaling pathway (ERKs [11]),stimulation of ERKs survival pathway (ERKs survival pathway),inhibition of STAT3 phosphorylation (STAT3)
"Cc1ccc(NC2=C(N3CCCC3)C(=O)c3ccccc3C2=O)cc1 [TW85, 2-pyrrolidine-3-(p-methylphenylamino)-1,4-naphthoquinone]",stimulates the ERKs signaling pathway; also recorded: induced the formation of phosphorylated ERKs protein,3.6,0.8,3.5,> 20,not the p38-MAPK signaling pathway; also recorded: without inducing the formation of phosphorylated p38 protein,,,,,,,,,,
"Cc1ccc(NC2=C(Cl)C(=O)c3ccccc3C2=O)cc1 [TW69, 2-chloro-3-(p-methylphenylamino)-1,4-naphthoquinone]",stimulate mainly the ERKs signaling pathway; also recorded: induced the formation of phosphorylated ERKs protein,,,,,without significantly influencing the p38-MAPK signaling pathway; also recorded: without inducing the formation of phosphorylated p38 protein,30,stimulate both ERKs and p38-MAPKs signaling,did not injure the cardiomyocytes at concentrations killing VSM cells,stimulate both ERKs and p38-MAPKs signaling,,,,,,
"COC(=O)[C@@H]1CCCN1C1=C(Cl)C(=O)c2ccccc2C1=O [EH48, 2-chloro-3-(L-prolinemethyl ester)-1,4-naphthoquinone]",,,,,,,,,,,positive in-vivo effect,increase in cell survival and viability; also recorded: XTT elevation,,,,
"O=C1C(Nc2ccc(O)cc2)=C(N2CCCC2)C(=O)c2ccccc21 [TW96, 2-pyrrolidine-3-(p-hydroxy-phenylamino)-1,4-naphthoquinone]",,0.2,0.5,0.5,0.4,,,,did not injure the cardiomyocytes at concentrations killing VSM cells,stimulates mostly the P38-MAPK,,,specifically stimulate the P38 pathway,without significantly influencing the ERKs signaling pathway,without stimulating the ERKs survival pathway,strong inhibitor of STAT3 phosphorylation
